In US8663928B2, “Method for the detection of post-translational modifications” (CIS BIO International, priority 2006, dated 2014):

Key:
Cam kinase II = target: T1, Cam kinase II (Homo sapiens, UniProt Q13557); test: TR-FRET measurement of the phosphorylation of a generic protein substrate by Cam kinase II in co-transfected HEK293 cells; format: cell-based; settings: FIG. 2; ionomycin 1 μM, 5 min; HEK293 co-transfected with substrate plasmid and CamKII delta
T1 construct: expressed in transfected cells; host or cells: HEK293
T1 sequence (Q13557 whole entry): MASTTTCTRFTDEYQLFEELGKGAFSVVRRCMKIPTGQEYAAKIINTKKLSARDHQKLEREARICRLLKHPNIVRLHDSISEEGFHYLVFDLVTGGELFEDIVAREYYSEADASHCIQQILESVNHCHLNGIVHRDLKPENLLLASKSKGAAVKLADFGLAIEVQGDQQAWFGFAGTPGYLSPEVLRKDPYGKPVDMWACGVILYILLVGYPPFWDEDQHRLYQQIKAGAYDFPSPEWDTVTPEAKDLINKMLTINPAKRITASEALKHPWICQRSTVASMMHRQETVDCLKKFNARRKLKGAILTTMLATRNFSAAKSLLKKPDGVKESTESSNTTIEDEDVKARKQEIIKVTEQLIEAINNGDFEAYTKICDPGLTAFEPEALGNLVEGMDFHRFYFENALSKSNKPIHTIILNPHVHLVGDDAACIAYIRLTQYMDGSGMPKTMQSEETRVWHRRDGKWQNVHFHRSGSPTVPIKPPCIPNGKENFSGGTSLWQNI
Description: 8000 cells HEK293 are either transfected with increasing quantities of plasmid coding for the substrate alone (Identical to Example 1), or co-transfected with the same quantities of plasmid coding for the substrate and 25 ng of CamKII 6-pcDNA 3.1 (plasmid coding for Cam kinase II). The transfection is carried out as described in Example 1.
The cells are then cultured for 48 hours at 37° C. in DMEM medium, comprising 10% fcetal calf serum and 1% antibiotic and antifungal, then for 16 hours in the same medium without serum.
The cells are stimulated for 5 min in the presence of ionomycin 1 μM (Sigma), and lysed as described above.
The phosphorylation of the protein substrate is detected as described in Example 1.

Akt1 = target: T2, Akt1 (Homo sapiens, UniProt P31749); test: TR-FRET measurement of the phosphorylation of a generic protein substrate by Akt1 in co-transfected HEK293 cells, with total protein substrate; format: cell-based
T2 construct: expressed in transfected cells; host or cells: HEK293
T2 sequence (P31749 whole entry, species assumed): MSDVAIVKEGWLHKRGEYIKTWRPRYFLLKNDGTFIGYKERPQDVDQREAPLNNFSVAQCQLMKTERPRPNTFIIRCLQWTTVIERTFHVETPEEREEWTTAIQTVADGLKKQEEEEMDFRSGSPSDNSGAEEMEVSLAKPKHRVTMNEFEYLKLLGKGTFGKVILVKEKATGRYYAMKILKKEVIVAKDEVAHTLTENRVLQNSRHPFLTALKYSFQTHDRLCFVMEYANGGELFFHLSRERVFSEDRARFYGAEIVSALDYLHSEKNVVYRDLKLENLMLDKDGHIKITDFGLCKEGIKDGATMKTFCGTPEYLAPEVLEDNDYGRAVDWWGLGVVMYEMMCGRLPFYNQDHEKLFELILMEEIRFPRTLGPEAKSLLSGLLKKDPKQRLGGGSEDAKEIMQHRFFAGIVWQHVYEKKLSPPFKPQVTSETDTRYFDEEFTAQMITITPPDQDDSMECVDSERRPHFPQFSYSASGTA
Description: 8000 HEK293 cells (ATCC) are either transfected with increasing quantities of plasmid coding for the substrate alone, or co-transfected with the same quantities of plasmid coding for the substrate and 25 ng of Akt1-pcDNA 3.1 (Invitrogen Corp. Cat No. V790-20) The co-transfection is carried out in the presence of Lipofectamine 2000 (Invitrogen corp. Cat No. 11668-019) and OPTI-MEM medium (Gibco Cat No. 31985).
The cells are then cultured for 48 hours at 37° C. in 25 μl of DMEM medium (Gibco Cat No. 11965-092), to which 10% FCS (Hyclone Cat No. SV30014-03) and 1% antibiotic and antifungal (Gibco Cat No. 15240-062) are added in 384-well plates (Proxiplate 384, Perkin-Elmer Cat No. 6006280).
The cells are lysed in 50 mM Hepes buffer, pH7, containing 0.1% BSA, 20 mM EDTA, 0.8 M potassium fluoride and 2% TRITON X-100® (octylphenol ethyelene oxide condensate)). This same buffer contains 1.8 ng of phosphospecific antibodies (STK antibody, Upstate Cat No. 35-002) conjugated with the donor (europium cryptate) and 40 ng of anti-FLAG conjugated with the acceptor (cross-linked allophycocyanin, XL 665, CIS bio international Cat No. 61 FG2XLA).
The plate is incubated for 1 hour at ambient temperature before time-resolved reading.
The FRET signals are measured on an Acquest 384 fluorimeter (Molecular Device) in TR-FRET mode at 620 nm (emission wavelength of rare earth cryptate) and 665 nm (emission wavelength of allophycocyanin) after excitation by a flash lamp with a bandwidth comprised between 330 and 380 nm. The ratio between the fluorescence emitted at 665 nm (fluorescence of the acceptor) and the fluorescence emitted at 620 nm (fluorescence of the donor) (Ratio 665/620) represents the FRET occurring between the donor (europium cryptate) and the acceptor (Allophycocyanin). […]
The cells are co-transfected and cultured as described in Example 1. […] The cells are then lysed and the phosphorylated protein substrate detected as described in Example 1.
In parallel, in a second well, cells are treated in identical manner. After lysis, the total quantity of protein substrate is measured using an anti-c-myc antibody coupled with europium cryptate (2.9 ng/well) (CIS bio international Cat No. 61MYCKLA) and an anti-FLAG antibody coupled with allophycocyanin (40 ng/well).
The cells are co-transfected with a plasmid coding for the protein substrate labelled by the c-myc and flag tags and with a plasmid coding for Akt1, as described in Example 1. […] In this case the lysate is first placed in the presence of a phosphospecific antibody, coupled with tris-bipyridine europium cryptate (CIS bio international, formula below), and an anti-FLAG antibody coupled with allophycocyanin (in the same quantities as those described in Example 1). […]

C[C@H](CCC(=O)O)C[C@H](C)C[C@H](C)C(=O)/C=C(\O)[C@H](C)C[C@H](C)C/C=C/[C@@H](C)[C@@H](O)[C@@H](C)[C@@H](O)C[C@@H]1CC[C@@](C)([C@H]2CC[C@@](C)([C@@H](C)O)O2)O1 [ionomycin]
signal of phosphorylated protein substrate after stimulation (Cam kinase II): much greater than in its absence

CN[C@@H]1C[C@H]2O[C@@](C)([C@@H]1OC)n1c3ccccc3c3c4c(c5c6ccccc6n2c5c31)C(=O)NC4 [staurosporine]
signal corresponding to the phosphorylated protein substrate (Akt1; FIG. 3, HEK293 co-transfected with substrate plasmid and Akt1, 1 hour incubation with increasing concentrations, separate wells): reduces with increasing concentrations | signal corresponding to the total protein substrate (Akt1; FIG. 3, anti-c-myc cryptate/anti-FLAG allophycocyanin, second well, increasing concentrations): remains constant whatever the dose of inhibitor | signal corresponding to the phosphorylated protein substrate (not standardized) (Akt1; FIG. 4, 0.2 nM, 20 nM, 2 μM, separate wells or single well with FRET suppressing agent): sensitive to staurosporine only in the case where it is added to the measurement medium at high concentrations (2 μM) | ratio of phosphorylated protein substrate: total protein substrate (Akt1; FIG. 6, signal standardized by total protein substrate signal, 0.2 nM, 20 nM, 2 μM): inhibition of the phosphorylation of the protein substrate
